Experimental data as given in article PMC7180948, “New Insights into 4-Anilinoquinazolines as Inhibitors of Cardiac Troponin I–Interacting Kinase (TNNi3K)” (Molecules, 2020).

Experiments:
Assay in all cases: biochemical
Set-up in all cases: KINOMEscan competition binding panel (Eurofins DiscoverX), single concentration, percent inhibition
Details in all cases: read-out: 15 at 1 µM % inhibition
[1] = molecular target: LATS2 (Homo sapiens, UniProt Q9NRM7)
How it was run: (§1)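 Binding was profiled in the KINOMEscan panel of over 400 human kinases, with each compound tested at a single concentration of 1 µM to map selectivity.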

[2] = molecular target: CAMK2D (Homo sapiens, UniProt Q13557)
How it was run: as §1

[3] = molecular target: MAPKAPK2 (Homo sapiens, UniProt P49137)
How it was run: as §1

[4] = molecular target: PAK2 (Homo sapiens, UniProt Q13177)
How it was run: as §1

[5] = molecular target: CSNK1G3 (Homo sapiens, UniProt Q9Y6M4)
How it was run: as §1

[6] = molecular target: EGFR(L861Q) (Homo sapiens, UniProt P00533, L861Q)
How it was run: as §1

[7] = molecular target: PIK3CA(E545K) (Homo sapiens, UniProt P42336, E545K)
How it was run: as §1

[8] = molecular target: MAPKAPK5 (Homo sapiens, UniProt Q8IW41)
How it was run: as §1

[9] = molecular target: MET(M1250T) (Homo sapiens, UniProt P08581, M1250T)
How it was run: as §1

[10] = molecular target: EPHB4 (Homo sapiens, UniProt P54760)
How it was run: as §1

[11] = molecular target: EGFR(E746-A750del) (Homo sapiens, UniProt P00533, DEL746-750)
How it was run: as §1

[12] = molecular target: LRRK2(G2019S) (Homo sapiens, UniProt Q5S007, G2019S)
How it was run: as §1

[13] = molecular target: PIK3CG (Homo sapiens, UniProt P48736)
How it was run: as §1

[14] = molecular target: T1, TAK1 (Homo sapiens, UniProt O43318)
T1 construct: gene MAP3K7
How it was run: as §1

[15] = molecular target: T2, RSK1(Kin.Dom.1-N-terminal) (Homo sapiens, UniProt Q15418)
T2 construct: gene RPS6KA1; Kin.Dom.1-N-terminal
How it was run: as §1

[16] = molecular target: MET (Homo sapiens, UniProt P08581)
How it was run: as §1

[17] = molecular target: T3, MST4 (Homo sapiens, UniProt Q9P289)
T3 construct: gene STK26
How it was run: as §1

[18] = molecular target: ITK (Homo sapiens, UniProt Q08881)
How it was run: as §1

[19] = molecular target: ACVR1 (Homo sapiens, UniProt Q04771)
How it was run: as §1

[20] = molecular target: BRSK2 (Homo sapiens, UniProt Q8IWQ3)
How it was run: as §1

[21] = molecular target: PIK3CA(H1047L) (Homo sapiens, UniProt P42336, H1047L)
How it was run: as §1

[22] = molecular target: T4, LKB1 (Homo sapiens, UniProt Q15831)
T4 construct: gene STK11
How it was run: as §1

[23] = molecular target: T5, RPS6KA5(Kin.Dom.2-C-terminal) (Homo sapiens, UniProt O75582)
T5 construct: Kin.Dom.2-C-terminal
How it was run: as §1

Sequence of EGFR(E746-A750del) (P00533 with tags, fused parts or gaps DEL746-750): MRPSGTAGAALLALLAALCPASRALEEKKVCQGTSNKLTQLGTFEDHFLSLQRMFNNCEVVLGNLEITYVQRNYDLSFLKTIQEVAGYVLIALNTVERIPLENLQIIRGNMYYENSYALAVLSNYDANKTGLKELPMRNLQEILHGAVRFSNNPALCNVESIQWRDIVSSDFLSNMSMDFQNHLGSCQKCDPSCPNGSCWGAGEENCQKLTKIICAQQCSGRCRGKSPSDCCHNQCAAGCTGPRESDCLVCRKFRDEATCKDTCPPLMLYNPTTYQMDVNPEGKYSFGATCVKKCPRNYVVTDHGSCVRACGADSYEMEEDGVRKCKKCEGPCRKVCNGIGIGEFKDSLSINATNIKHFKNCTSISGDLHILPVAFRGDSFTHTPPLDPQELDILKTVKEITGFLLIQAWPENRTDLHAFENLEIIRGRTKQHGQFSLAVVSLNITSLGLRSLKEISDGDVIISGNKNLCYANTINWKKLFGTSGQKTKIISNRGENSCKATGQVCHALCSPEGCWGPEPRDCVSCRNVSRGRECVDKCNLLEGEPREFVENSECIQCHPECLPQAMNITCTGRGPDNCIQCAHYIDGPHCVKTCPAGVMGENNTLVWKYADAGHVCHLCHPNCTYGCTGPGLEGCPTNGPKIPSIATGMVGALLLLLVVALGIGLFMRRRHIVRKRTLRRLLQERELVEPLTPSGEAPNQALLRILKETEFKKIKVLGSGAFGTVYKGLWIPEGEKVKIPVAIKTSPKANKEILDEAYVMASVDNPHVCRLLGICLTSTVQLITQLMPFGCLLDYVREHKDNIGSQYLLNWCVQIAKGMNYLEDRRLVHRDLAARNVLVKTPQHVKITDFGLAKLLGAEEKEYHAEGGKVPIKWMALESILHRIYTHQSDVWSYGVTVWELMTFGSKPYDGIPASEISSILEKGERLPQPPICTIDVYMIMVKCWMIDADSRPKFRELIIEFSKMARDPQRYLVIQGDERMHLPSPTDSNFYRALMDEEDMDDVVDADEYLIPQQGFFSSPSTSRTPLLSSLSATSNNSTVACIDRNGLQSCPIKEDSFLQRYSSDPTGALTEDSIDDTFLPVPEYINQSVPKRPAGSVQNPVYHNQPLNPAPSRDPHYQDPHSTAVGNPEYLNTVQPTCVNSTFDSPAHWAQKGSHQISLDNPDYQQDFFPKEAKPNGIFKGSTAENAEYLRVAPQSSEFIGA
Sequence of BRSK2 (Q8IWQ3 whole entry): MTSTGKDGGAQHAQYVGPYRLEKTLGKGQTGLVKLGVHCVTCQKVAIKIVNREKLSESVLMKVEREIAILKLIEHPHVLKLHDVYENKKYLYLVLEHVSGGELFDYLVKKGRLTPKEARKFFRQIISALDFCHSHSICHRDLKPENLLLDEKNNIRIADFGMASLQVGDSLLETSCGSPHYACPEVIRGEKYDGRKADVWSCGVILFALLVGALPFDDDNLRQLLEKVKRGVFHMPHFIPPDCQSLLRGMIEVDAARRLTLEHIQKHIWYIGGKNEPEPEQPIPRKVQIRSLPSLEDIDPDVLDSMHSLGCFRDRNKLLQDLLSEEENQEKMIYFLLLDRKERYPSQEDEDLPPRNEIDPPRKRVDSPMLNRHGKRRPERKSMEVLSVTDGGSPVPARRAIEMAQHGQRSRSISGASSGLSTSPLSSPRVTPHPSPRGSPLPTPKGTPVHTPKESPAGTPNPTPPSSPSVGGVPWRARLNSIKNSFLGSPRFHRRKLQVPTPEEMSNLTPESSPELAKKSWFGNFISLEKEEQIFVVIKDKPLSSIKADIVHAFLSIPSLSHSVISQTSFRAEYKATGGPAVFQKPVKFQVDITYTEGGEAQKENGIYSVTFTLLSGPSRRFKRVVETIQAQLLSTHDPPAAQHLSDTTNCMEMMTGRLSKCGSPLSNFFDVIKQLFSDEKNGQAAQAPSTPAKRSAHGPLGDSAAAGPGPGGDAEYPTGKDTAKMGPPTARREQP
Sequence of ITK (Q08881 whole entry): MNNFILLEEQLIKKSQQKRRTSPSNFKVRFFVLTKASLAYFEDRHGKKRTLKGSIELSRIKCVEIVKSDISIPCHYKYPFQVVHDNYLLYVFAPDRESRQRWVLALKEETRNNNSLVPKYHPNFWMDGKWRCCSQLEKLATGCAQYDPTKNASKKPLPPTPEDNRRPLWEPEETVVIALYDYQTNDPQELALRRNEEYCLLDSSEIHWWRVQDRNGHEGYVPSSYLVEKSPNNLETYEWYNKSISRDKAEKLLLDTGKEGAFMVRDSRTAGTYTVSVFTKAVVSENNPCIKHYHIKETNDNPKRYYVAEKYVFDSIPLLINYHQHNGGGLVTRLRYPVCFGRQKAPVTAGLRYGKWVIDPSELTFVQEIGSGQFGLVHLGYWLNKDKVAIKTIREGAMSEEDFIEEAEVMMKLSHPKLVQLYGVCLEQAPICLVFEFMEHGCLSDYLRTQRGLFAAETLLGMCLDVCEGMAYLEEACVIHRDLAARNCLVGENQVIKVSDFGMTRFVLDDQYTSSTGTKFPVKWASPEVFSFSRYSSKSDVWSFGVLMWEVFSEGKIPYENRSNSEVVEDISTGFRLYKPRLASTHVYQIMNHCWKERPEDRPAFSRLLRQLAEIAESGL
T1 sequence (O43318 whole entry): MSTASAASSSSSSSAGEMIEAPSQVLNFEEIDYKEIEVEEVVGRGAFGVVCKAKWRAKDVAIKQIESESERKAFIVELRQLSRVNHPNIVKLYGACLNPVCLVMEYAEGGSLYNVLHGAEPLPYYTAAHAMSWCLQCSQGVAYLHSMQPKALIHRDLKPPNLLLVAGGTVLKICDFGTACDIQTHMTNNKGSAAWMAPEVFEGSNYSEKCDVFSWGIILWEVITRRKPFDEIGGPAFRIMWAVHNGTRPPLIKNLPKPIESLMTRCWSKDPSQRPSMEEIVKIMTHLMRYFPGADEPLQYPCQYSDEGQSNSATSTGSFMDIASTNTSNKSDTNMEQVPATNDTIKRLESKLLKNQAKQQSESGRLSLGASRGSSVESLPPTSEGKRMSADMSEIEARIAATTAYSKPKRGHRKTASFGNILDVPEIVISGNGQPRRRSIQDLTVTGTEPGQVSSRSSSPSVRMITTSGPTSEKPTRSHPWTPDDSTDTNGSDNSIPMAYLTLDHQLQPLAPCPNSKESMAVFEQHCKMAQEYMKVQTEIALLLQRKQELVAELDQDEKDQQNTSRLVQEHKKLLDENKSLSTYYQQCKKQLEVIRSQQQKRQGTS
Sequence of MAPKAPK2 (P49137 whole entry): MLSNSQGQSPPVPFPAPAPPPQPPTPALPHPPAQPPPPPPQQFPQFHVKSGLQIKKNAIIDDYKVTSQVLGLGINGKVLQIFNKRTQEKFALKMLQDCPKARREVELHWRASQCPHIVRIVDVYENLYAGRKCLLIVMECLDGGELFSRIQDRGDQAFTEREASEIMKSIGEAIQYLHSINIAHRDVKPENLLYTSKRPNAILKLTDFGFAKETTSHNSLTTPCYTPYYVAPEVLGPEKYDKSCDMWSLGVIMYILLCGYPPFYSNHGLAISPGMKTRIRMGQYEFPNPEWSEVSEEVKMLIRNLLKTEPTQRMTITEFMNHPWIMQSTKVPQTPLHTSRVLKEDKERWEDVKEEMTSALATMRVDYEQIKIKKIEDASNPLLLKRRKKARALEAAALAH
Sequence of MAPKAPK5 (Q8IW41 whole entry): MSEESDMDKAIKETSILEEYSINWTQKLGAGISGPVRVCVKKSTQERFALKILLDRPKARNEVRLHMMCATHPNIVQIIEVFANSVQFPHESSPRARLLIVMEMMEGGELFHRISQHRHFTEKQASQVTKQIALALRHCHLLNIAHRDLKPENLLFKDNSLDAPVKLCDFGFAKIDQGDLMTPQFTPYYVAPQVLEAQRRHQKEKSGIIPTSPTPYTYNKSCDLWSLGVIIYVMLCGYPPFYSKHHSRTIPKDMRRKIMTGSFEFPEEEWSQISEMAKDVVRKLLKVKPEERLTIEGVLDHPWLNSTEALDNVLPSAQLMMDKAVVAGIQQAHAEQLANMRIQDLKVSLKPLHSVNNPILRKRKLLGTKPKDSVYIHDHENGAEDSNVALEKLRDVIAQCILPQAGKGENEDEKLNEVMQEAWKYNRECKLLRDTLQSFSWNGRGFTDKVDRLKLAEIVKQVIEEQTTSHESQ
Sequence of CAMK2D (Q13557 whole entry): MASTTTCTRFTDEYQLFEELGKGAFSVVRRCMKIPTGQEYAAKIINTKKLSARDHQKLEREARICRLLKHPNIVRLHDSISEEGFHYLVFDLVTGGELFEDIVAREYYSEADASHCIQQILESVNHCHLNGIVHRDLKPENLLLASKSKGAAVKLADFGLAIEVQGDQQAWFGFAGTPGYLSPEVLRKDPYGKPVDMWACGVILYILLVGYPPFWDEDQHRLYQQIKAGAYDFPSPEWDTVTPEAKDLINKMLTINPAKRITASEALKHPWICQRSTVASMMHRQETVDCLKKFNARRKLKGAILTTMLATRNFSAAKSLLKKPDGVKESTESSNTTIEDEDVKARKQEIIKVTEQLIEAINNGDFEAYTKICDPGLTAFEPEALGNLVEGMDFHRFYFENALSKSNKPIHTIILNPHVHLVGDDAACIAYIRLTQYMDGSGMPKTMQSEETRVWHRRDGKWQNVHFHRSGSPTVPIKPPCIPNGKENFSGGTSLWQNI
Sequence of CSNK1G3 (Q9Y6M4 whole entry): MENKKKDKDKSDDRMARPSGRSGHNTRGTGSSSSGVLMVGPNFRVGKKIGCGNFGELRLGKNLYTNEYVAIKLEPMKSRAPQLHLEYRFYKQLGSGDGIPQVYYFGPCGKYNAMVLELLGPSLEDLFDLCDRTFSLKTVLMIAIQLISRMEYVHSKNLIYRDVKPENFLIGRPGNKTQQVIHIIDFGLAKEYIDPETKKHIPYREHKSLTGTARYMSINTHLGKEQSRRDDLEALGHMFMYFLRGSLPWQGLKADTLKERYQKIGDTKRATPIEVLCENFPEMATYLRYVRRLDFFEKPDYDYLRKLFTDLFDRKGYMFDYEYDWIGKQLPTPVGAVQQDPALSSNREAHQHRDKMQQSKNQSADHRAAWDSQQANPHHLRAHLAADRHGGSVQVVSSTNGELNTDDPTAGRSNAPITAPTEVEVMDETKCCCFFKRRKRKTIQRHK

- inhibition at 1 µM [1]: 14%
- inhibition at 1 µM [2]: 0%
- inhibition at 1 µM [3]: 0%
- inhibition at 1 µM [4]: 14%
- inhibition at 1 µM [5]: 0%
- inhibition at 1 µM [6]: 0%
- inhibition at 1 µM [7]: 21%
- inhibition at 1 µM [8]: 23%
- inhibition at 1 µM [9]: 0%
- inhibition at 1 µM [10]: 0%
- inhibition at 1 µM [11]: 31%
- inhibition at 1 µM [12]: 8%
- inhibition at 1 µM [13]: 0%
- inhibition at 1 µM [14]: 24%
- inhibition at 1 µM [15]: 0%
- inhibition at 1 µM [16]: 0%
- inhibition at 1 µM [17]: 13%
- inhibition at 1 µM [18]: 0%
- inhibition at 1 µM [19]: 0%
- inhibition at 1 µM [20]: 21%
- inhibition at 1 µM [21]: 21%
- inhibition at 1 µM [22]: 0%
- inhibition at 1 µM [23]: 8%
SMILES: CNS(=O)(=O)c1ccc(N(C)C)c(Nc2nc(C)nc3cc(OC)c(OC)cc23)c1 [compound 15, 3-((6,7-dimethoxy-2-methylquinazolin-4-yl)amino)-4-(dimethylamino)-N-methylbenzenesulfonamide]
